Columns and labels:
MOR = test system: MOR; set-up: method as in PMID 35412886; conditions: 10 µM; cited from earlier work
CB2 receptor [1] = target: T1, CB2 receptor (Homo sapiens, UniProt P34972); assay: CB2 antagonist cAMP assay (HitHunter cAMP XS+), CP55,940 challenge; type: cell-based; conditions: for Emax: read-out: CB2 antagonist activity, % of the maximum effect of SR144528, highest tested concentration (12 µM), CP55,940 1 nM
T1 construct: host or cells: CHO-K1 (from the C2 catalogue suffix and 'same protocol' as CB1)
T1 sequence (P34972 whole entry): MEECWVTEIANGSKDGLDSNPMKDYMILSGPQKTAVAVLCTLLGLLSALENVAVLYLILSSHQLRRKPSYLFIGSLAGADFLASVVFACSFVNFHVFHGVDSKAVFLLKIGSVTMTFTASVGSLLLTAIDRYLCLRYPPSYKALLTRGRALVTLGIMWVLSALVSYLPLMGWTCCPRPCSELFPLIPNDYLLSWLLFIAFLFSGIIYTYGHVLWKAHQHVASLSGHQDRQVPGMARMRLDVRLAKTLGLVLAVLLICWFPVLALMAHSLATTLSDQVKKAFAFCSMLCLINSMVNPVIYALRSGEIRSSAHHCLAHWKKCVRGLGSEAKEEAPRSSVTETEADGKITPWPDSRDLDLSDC
Experimental: In summary, cells were seeded in a total volume of 20 µL (10,000 cells) into white-walled, 384-well microplates and incubated at 37 °C for the appropriate time prior to testing. […] The assay signal was generated through incubation with 20 μL cAMP XS+ ED/CL lysis cocktail for one hour, followed by incubation with 20 μL cAMP XS+ EA reagent for three hours at room temperature. Microplates were read following signal generation with a PerkinElmer Envision instrument for chemiluminescent signal detection.
(§1) For the CB1 and CB2 antagonist assays, cells were pre-incubated with antagonists/compounds, followed by an agonist challenge at an ~EC80 concentration. Similar to the agonist assay, before adding the ligands, media were aspirated from cells and replaced with 15 µL 2:1 HBSS/10mM HEPES/cAMP XS+ Ab reagent. A total of 5 μL of 4× compound solution, prepared in a separate plate by a 10-point series of 3-fold compound serial dilutions in assay buffer (forskolin excluded), was added to the cells and incubated at 37 °C for 30 min. […] The assay signal was generated through incubation with 20 μL cAMP XS+ ED/CL lysis cocktail for one hour, followed by incubation with 20 μL cAMP XS+ EA reagent for three hours at room temperature. A PerkinElmer Envision instrument was used for chemiluminescent signal detection.

5HT-1A receptor = target: T2, 5HT-1A receptor (Homo sapiens, UniProt P08908); assay: 5HT-1A agonist PathHunter β-arrestin assay; set-up: Emax: dose or concentration left out as unconfirmed; conditions: for Emax: CHO-K1, read-out: 5HT-1A agonism, % of the maximum response of serotonin
T2 sequence (P08908 1-422): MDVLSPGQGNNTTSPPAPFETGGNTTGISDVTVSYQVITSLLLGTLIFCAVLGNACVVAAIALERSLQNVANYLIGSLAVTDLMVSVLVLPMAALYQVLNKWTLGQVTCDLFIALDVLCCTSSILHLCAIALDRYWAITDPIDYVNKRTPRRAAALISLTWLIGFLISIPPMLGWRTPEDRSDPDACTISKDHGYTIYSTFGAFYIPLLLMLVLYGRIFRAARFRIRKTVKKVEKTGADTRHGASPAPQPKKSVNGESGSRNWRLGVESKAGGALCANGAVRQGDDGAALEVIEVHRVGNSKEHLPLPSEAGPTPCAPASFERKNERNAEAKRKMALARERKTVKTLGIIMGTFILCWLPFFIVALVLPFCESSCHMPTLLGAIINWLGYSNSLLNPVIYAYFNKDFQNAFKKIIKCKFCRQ
Text: (§2) One hundred percent relative activity was normalized to maximum stimulation of endogenous agonists and 0% relative activity to compound vehicle control.
For the 5HT-1A agonist assay, PathHunter® β-arrestin cells (CHO-K1) were expanded from freezer stocks according to standard procedures provided by Eurofins. The cell line manual was followed for cell growth (including cell culture media and supplementation, cell handling and preparation, etc.), test procedure, and signal detection.
In summary, cells were seeded at a total volume of 20 µL (10,000 cells) into white-walled, 384-well microplates and incubated at 37 °C for the appropriate time prior to testing. After preparing stock acetonitrile solution at a 1 mg/mL concentration of ligand, compound intermediate concentrations were achieved by a 10-point series of 3-fold compound serial dilutions in a compound dilution buffer in a separate dilution plate. The concentration of each dilution was prepared at 5× of the final screening concentration. […] Then, 12.5 μL Working Detection Solution was added, and the cells were incubated for 1 h at room temperature in the dark. The assay signal was generated through a single addition of 15 µL (50% v/v) of the PathHunter Detection reagent cocktail, followed by a one-hour incubation at room temperature. Microplates were read following signal generation with a PerkinElmer Envision instrument for chemiluminescent signal detection.

dopamine D2S receptor = target: T3, dopamine D2S receptor (Homo sapiens, UniProt P14416); assay: D2S agonist HitHunter cAMP XS+ assay; type: cell-based; set-up: Emax: dose or concentration left out as unconfirmed
T3 construct: host or cells: CHO-K1
T3 sequence (P14416 1-414 isoform P14416-2): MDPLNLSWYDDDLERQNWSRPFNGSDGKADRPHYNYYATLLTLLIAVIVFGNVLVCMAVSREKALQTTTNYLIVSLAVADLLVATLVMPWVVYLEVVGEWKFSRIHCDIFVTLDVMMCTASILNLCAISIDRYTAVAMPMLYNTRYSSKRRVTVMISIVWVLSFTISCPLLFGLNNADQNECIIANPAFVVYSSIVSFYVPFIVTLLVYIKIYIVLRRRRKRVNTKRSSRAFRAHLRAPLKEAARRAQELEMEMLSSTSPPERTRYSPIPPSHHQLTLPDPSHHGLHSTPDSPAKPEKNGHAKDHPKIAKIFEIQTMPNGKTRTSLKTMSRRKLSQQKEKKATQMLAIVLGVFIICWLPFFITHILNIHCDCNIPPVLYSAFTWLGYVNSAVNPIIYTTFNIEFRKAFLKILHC
Experimental: as §2
For the D2S agonist assay, cAMP CHO-K1 Hunter cell lines were expanded from freezer stocks according to standard procedures. The cell line manual was followed for cell growth (including cell culture media and supplementation, cell handling and preparation, etc.), test procedures, and signal detection.
(§3) In summary, cells were seeded in a total volume of 20 µL (10,000 cells) into white-walled, 384-well microplates and incubated at 37 °C for the appropriate time prior to testing.

CB1 receptor = target: T4, CB1 receptor (Homo sapiens, UniProt P21554); assay: CB1 antagonist cAMP assay (HitHunter cAMP XS+), CP55,940 challenge; type: cell-based; conditions: for Emax: CHO-K1, read-out: CB1 antagonist activity, % of the maximum response of AM251; for Concentration at which CB1 antagonist activity above the baseline appeared: CP55,940 1 nM, CHO-K1
T4 construct: host or cells: CHO-K1
T4 sequence (P21554 whole entry): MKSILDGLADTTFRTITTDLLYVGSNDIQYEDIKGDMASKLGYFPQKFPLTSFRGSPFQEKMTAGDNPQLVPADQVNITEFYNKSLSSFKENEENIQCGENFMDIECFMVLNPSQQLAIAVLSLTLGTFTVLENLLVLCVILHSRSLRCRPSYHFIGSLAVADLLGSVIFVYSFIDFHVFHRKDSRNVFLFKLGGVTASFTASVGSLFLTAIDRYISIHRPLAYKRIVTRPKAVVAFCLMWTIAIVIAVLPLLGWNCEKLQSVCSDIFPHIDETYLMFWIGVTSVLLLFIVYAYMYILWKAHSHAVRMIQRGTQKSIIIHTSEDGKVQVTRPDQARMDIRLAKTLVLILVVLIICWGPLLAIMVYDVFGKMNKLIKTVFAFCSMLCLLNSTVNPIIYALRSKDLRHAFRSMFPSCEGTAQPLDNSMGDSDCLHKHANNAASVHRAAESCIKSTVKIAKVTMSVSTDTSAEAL
Experimental: as §3, §1

CB2 receptor [2] = target: T1, CB2 receptor; assay: Radioligand binding assay, displacement of [3H]-CP55940 at CB2; conditions: 1 µM compound; 100% = 1 µM WIN55212-2
Experimental: A total of 750 nl of the reference and test compounds was transferred to a 96-well compound plate, and 150 µL assay buffer was added to each well to achieve a 5× final concentration. The plates were centrifuged for 30 s at 1000 rpm and then agitated at 600 rpm and room temperature for 5 min.
Separately, 50 µL of 0.5% v/v PEI was added to each well of UniFilter-96 GF/C plates. The plates were sealed and incubated at 4 °C for 3 h. After incubation, they were washed 2 times with ice-cold wash buffer.
The cell membrane was diluted with assay buffer, and 330 µL was transferred to 96 round deep-well plates to reach a concentration of 10 µg/well. […] The plates were centrifuged at 1000 rpm for 30 s and then agitated at 600 rpm for 5 min (room temperature). The plates were sealed and incubated at 30 °C for 90 min. The incubation was stopped by vacuum filtration onto GF/C filter plates, followed by washing 4 times with ice-cold wash buffer. The plates were dried at 37 °C for 45 min. After the addition of 40 µL of scintillation cocktail, a Microbeta2 microplate counter was used to detect the radioactivity signals.

[3] = target: T5, mu-opioid receptor (MOR, OPRM1) (Homo sapiens, UniProt P35372); type: cell-based; conditions: for Increase in the met-enkephalin internalization signal: 10 µM compound, 30 min pre-treatment, then 1 µM met-enkephalin
T5 construct: host or cells: U2OS (methods); the results text b24 says CHO-K1
T5 sequence (P35372 whole entry): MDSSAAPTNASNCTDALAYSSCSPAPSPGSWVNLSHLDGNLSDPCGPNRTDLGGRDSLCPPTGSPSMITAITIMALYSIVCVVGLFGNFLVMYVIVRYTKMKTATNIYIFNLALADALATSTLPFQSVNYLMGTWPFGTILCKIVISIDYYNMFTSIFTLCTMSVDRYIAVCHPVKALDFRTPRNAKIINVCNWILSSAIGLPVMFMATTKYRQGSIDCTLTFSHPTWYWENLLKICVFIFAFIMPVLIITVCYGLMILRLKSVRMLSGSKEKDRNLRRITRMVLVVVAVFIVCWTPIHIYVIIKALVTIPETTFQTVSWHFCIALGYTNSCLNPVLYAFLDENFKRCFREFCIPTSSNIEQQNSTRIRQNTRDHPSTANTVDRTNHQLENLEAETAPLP
Experimental: For the MOR antagonist/NAM assay, PathHunter® OPRM1 (opioid receptor mu 1) total GPCR (G protein-coupled receptors) internalization U2OS cell lines were expanded from freezer stocks according to standard procedures. The cell line manual was followed for cell growth (including cell culture media and supplementation, cell handling and preparation, etc.), test procedures, and signal detection.
In summary, cells were seeded in a total volume of 20 µL (10,000 cells) into white-walled, 384-well microplates and incubated at 37 °C overnight prior to testing. After preparing a stock acetonitrile solution at a 1 mg/mL concentration of ligand, compound intermediate concentrations were achieved by a 10-point series of 3-fold compound serial dilutions in a compound dilution buffer in a separate dilution plate. The concentration of each dilution was prepared at 10× of the final screening concentration. […] A PerkinElmer Envision instrument was used for chemiluminescent signal detection.

mice = test system: mice; set-up: method as in PMID 31889124; conditions: doses 2.5 to 10 mg/kg; cited from earlier work

SMILES | Activity of MOR in GTP turnover rate assay (MOR) | Emax (CB2 receptor [1]) | EC50 (5HT-1A receptor) | Emax (5HT-1A receptor) | Emax (dopamine D2S receptor; CHO-K1, read-out: D2S agonist activity, % maximum response of dopamine) | Emax (CB1 receptor) | Concentration at which CB1 antagonist activity above the baseline appeared (CB1 receptor) | Displacement of radiolabeled CP55940 at the CB2 binding site (CB2 receptor [2]) | Increase in the met-enkephalin internalization signal [3] | IC50 (CB2 receptor [1]; read-out: CB2 antagonist IC50 (not reached within tested concentrations)) | D2S agonism (in words) (dopamine D2S receptor; within the tested concentration range (up to 12 µM)) | IC50 (CB1 receptor; read-out: CB1 antagonist IC50 (not reached within tested range)) | Met-enkephalin-induced mu-opioid internalization (in words) ([3]; 3 µM compound and 1 µM met-enkephalin) | In vivo effects in mice (mice)
COc1ccc(C2SCCN2S(=O)(=O)c2ccc(Cl)cc2)cc1Br (stereo not drawn) [BMS-986122] | 166% | – | – | – | – | – | – | – | – | – | – | – | – | –
C=C(C)[C@@H]1CCC(C)=C[C@H]1c1c(O)cc(CCCCC)cc1O [CBD, Cannabidiol, reference compound] | – | ~33% | > 12 µM | ~20% | 10.7% | ~20% | 3 µM | approximately 50% | 18% | – | – | – | – | –
C=C(C)[C@@H]1CCC(C)=C[C@H]1c1c(O)cc(CCCCCCC)cc1O [CBDP, cannabidiphorol] | – | ~23% | > 12 µM | ~20% | – | ~20% | 3 µM | approximately 50% | 37% | > 12 µM | did not show any sign of agonism | > 12 µM | significant increase | –
CCCCCCCc1cc(O)c2c(c1)OC(C)(C)[C@@H]1CCC(C)=C[C@@H]21 [Δ9-THCP, tetrahydrocannabiphorol] | – | – | – | – | – | – | – | – | – | – | – | – | – | induce THC-like hypomotility, analgesia, and catalepsy
